The values that follow come from patent publication US5965569A, “Polycyclic aminopyridine compounds which are acetylcholinesterase inhibitors, process for preparing them and their use” (priority 1995, dated 1999).

Structures can show the parent of a compound that is named as a salt. Where two headings read alike, the source gives them in different places.

Series [1] has as its target acetylcholinesterase (Homo sapiens, UniProt P22303). In words: Acetylcholinesterase-inhibiting capacity, colorimetric method of Ellman et al. It counts as biochemical.
The conditions of series [2]: administered intravenously in combination with lecithin, cited from earlier work.
[3] abbreviates: Table 8, with respect to tacrine under the same conditions, hydrochloride.
[4] abbreviates: Table 8, with respect to tacrine under the same conditions.

Chain of acetylcholinesterase (P22303 32-614): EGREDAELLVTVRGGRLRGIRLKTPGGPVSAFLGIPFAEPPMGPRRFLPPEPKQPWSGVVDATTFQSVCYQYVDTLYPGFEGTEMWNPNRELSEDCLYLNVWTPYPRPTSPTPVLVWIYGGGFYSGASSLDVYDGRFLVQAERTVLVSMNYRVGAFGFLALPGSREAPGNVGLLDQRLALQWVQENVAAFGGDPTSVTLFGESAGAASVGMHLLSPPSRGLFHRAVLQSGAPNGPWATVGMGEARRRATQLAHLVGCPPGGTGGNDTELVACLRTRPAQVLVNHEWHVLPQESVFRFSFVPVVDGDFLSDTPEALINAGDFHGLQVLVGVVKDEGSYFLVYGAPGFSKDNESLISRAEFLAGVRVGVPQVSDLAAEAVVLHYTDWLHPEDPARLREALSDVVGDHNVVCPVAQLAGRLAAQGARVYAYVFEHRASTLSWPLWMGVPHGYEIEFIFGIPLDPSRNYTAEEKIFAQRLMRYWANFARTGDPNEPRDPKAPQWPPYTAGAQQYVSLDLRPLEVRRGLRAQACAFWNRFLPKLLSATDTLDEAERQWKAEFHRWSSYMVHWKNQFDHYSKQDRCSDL

In the case of `CCC1=CC2Cc3nc4ccccc4c(N)c3C(C1)C2` (single isomer, unassigned; (+)) [(+) --Icw, (+)-12-Amino-6,7,10,11-tetrahydro-9-ethyl-7,11-methanocycloocteno[b]quinoline hydrochloride], in series [1] (setting [3]), the “IC50 tacrine/IC50 compound (ratio of the IC50 of tacrine to the IC50 of each compound)” value is reported as 0.15. As for `CC1=CC2Cc3nc4cccc(F)c4c(N)c3C(C1)C2` (stereo not shown) [Ibx, 12-Amino-1-fluoro-6,7,10,11-tetrahydro-9-methyl-7,11-methanocycloocta[b]quinoline], the “IC50 tacrine/IC50 compound (ratio of the IC50 of tacrine to the IC50 of each compound)” value in series [1] (setting [4]) is 4.14.

Turning to `CC1=CC2Cc3nc4ccccc4c(N)c3C(C1)C2` (stereo not drawn) [(+) --Ibw], in series [1], the “IC50 tacrine/IC50 compound (ratio of the IC50 of tacrine to the IC50 of each compound)” value turned out to be 0.40.

`Nc1c2c(nc3ccccc13)CCCC2` [tacrine, 9-amino-1,2,3,4-tetrahydroacridine]: the “usefulness in the treatment of Alzheimer's disease (in words)” value in series [2] was “proves useful in the treatment of Alzheimer's disease”. The “toxicity (in words)” value in series [2] (drawback of tacrine) is given as “high toxicity”. With `CC1=CC2Cc3nc4ccccc4c(N)c3C(C1)C2` (stereo not drawn) [(-) --Ibw], in series [1], the “IC50 tacrine/IC50 compound (ratio of the IC50 of tacrine to the IC50 of each compound)” value amounted to 2.80 and the “inhibitory activity against the enzyme acetylcholinesterase (in words)” value is on record as “much more active than their enantiomers”. Regarding `CCC1=CC2Cc3nc4ccccc4c(N)c3C(C1)C2` (racemic) [Icw, 12-Amino-9-ethyl-6,7,10,11-tetrahydro-7,11-methanocycloocta[b]quinoline], the “IC50 tacrine/IC50 compound (ratio of the IC50 of tacrine to the IC50 of each compound)” value in series [1] (setting [4]) was 3.38. Still for that read-out and setting: next, `Nc1c2c(nc3ccccc13)CC1C=C(c3ccccc3)CC2C1` (stereo not shown) [Ifw, 12-Amino-9-phenyl-6,7,10,11-tetrahydro-7,11-methanocycloocta[b]quinoline]: 1.03.

On to `CCC1=CC2Cc3nc4ccccc4c(N)c3C(C1)C2` (single isomer, unassigned; (-)) [(-) --Icw, (-)-12-Amino-6,7,10,11-tetrahydro-9-ethyl-7,11-methanocycloocteno[b]quinoline hydrochloride], for which, in series [1] (setting [3]), the “IC50 tacrine/IC50 compound (ratio of the IC50 of tacrine to the IC50 of each compound)” value came to 4.80. Moreover, the “inhibitory activity against the enzyme acetylcholinesterase (in words)” value in series [1] (qualitative comparison with tacrine or with enantiomer) was “much more active than their enantiomers”. For `CC1=CC2Cc3nc4cc(F)ccc4c(N)c3C(C1)C2` (stereo not shown) [Iby, 12-Amino-3-fluoro-6,7,10,11-tetrahydro-9-methyl-7,11-methanocycloocta[b]quinoline], in series [1] (setting [4]), the “IC50 tacrine/IC50 compound (ratio of the IC50 of tacrine to the IC50 of each compound)” value is on record as 15.28. As for `CC1=CC2Cc3nc4ccccc4c(N)c3C(C1)C2` (racemic) [Ibw, 12-Amino-6,7,10,11-tetrahydro-9-methyl-7,11-methanocycloocta[b]quinoline], the “IC50 tacrine/IC50 compound (ratio of the IC50 of tacrine to the IC50 of each compound)” value in series [1] stood at 2.00.
